From article PMC2999670 (The Journal of steroid biochemistry and molecular biology, 2010)
Changes are numbered by the printed parent chain. Read-outs that look alike come from different tables or passages of the source.

Tests used:
human 3β-HSD1 [1] = molecular target: T1, human 3β-HSD1 (Homo sapiens, UniProt P14060); assay: Michaelis-Menten kinetics of 3β-HSD substrate; assay type: biochemical; conditions: pH 7.4
human 3β-HSD2 [2] = molecular target: T2, human 3β-HSD2 (Homo sapiens, UniProt P26439); assay: Michaelis-Menten kinetics of 3β-HSD substrate; assay type: biochemical; conditions: pH 7.4
T2 sequence (P26439 1-372): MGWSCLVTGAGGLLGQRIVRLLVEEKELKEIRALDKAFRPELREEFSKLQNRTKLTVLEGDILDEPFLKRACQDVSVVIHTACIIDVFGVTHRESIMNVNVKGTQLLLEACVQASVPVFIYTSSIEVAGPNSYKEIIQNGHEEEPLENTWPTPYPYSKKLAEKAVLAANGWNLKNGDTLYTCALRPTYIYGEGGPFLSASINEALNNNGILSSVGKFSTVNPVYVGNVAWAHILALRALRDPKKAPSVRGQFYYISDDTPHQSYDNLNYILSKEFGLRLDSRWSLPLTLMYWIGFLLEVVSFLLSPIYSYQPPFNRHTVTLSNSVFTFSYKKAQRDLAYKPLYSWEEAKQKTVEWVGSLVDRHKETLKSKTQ

[3] = molecular target: T3, R195P-1 mutant of 3β-HSD1 (Homo sapiens, UniProt P14060, R196P); assay: Michaelis-Menten kinetics of 3β-HSD substrate; assay type: biochemical; conditions: Table 2, substrate DHEA 1–100 μM, NAD+ 0.2 mM, pH 7.4
T3 sequence (P14060 1-373 R196P): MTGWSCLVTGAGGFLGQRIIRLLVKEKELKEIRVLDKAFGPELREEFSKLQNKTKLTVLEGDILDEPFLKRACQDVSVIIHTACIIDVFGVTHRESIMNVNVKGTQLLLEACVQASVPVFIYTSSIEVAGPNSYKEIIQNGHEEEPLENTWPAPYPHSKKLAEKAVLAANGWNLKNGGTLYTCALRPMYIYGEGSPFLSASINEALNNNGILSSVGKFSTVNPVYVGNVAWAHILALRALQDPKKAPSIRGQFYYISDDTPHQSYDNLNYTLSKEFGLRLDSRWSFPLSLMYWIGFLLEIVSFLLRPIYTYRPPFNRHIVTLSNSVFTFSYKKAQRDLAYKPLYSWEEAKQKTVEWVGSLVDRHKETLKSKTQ

[4] = molecular target: T4, P195R-2 mutant of 3β-HSD2 (Homo sapiens, UniProt P26439, P195R); assay: Michaelis-Menten kinetics of 3β-HSD substrate; assay type: biochemical; conditions: Table 2, substrate DHEA 1–100 μM, NAD+ 0.2 mM, pH 7.4
T4 sequence (P26439 1-372 P195R): T2 sequence (P26439 1-372) with P195R

[5] = molecular target: T5, H156Y-1 mutant of 3β-HSD1 (Homo sapiens, UniProt P14060, H157Y); assay: Michaelis-Menten kinetics of 3β-HSD substrate; assay type: biochemical; conditions: Table 4; substrate DHEA 3-100 μM, NAD+ 200 μM, 27° C, pH 7.4
T5 sequence (P14060 1-373 H157Y): T3 sequence (P14060 1-373 R196P) with H157Y, P196R

human 3β-HSD1 [6] = molecular target: T1, human 3β-HSD1; assay: Inhibition of 3β-HSD activity of purified enzyme, Dixon analysis; assay type: biochemical
human 3β-HSD2 [7] = molecular target: T2, human 3β-HSD2; assay: as above; assay type: biochemical
[8] = molecular target: T5, H156Y-1 mutant of 3β-HSD1; assay: as above; assay type: biochemical
[9] = system: MCF-7 Tet-off 3β-HSD1 aromatase cells; conditions: cited from earlier work
[10] = system: MCF-7 Tet-off 3β-HSD2 aromatase cells; conditions: read-out: IC50, proliferation; DHEA-stimulated growth; cited from earlier work
[11] = system: other enzymes in steroidogenesis (e.g., 17β-HSD); conditions: cited from earlier work
[12] = system: MCF-7 Tet-off 3β-HSD1 aromatase cells; conditions: read-out: EC50, stimulation of growth; cited from earlier work
[13] = system: MCF-7 Tet-off 3β-HSD2 aromatase cells; conditions: read-out: EC50, stimulation of growth; cited from earlier work
[14] = system: MCF-7 Tet-off 3β-HSD2 aromatase cells; assay: Inhibition of DHEA-stimulated proliferation; assay type: cell-based, human; conditions: for IC50: Homo sapiens, MCF7, 240 h, read-out: IC50, proliferation; for inhibition of growth in the presence of doxycycline: doxycycline 10 ng/ml, DHEA 5.0 nM
MCF-7 cells = assay: Proliferation in the absence of DHEA substrate; assay type: cell-based, human
[15] = system: MCF-7 Tet-off 3β-HSD1 aromatase cells; assay: Inhibition of DHEA-stimulated proliferation; conditions: for inhibition of growth in the presence of doxycycline: doxycycline 10 ng/ml, DHEA 5.0 nM
[16] = molecular target: T3, R195P-1 mutant of 3β-HSD1; assay: Inhibition of 3β-HSD activity of purified enzyme, Dixon analysis; assay type: biochemical
[17] = Table 2, substrate DHEA 1–100 μM, NAD+ 0.2 mM
[18] = Table 4, substrate DHEA 3-100 μM, NAD+ 200 μM, 27° C
[19] = ratio of proliferation IC50 values

T1 sequence (P14060 whole entry): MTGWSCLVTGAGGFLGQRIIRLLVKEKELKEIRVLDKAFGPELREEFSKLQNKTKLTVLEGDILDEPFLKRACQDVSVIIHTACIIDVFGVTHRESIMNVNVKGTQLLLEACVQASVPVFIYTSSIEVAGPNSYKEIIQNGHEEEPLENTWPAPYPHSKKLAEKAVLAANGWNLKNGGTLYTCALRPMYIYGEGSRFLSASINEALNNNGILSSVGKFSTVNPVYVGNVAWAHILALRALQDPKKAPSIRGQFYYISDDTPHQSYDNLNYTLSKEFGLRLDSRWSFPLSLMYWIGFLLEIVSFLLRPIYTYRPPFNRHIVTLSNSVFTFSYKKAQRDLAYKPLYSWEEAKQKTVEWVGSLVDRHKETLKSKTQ

SMILES: C[C@]12CC[C@H](O)CC1=CC[C@@H]1[C@@H]2CC[C@]2(C)C(=O)CC[C@@H]12 [DHEA, dehydroepiandrosterone]
- 3β-HSD kcat (human 3β-HSD1 [1]; [17]): 0.055 s⁻¹
- 3β-HSD kcat (human 3β-HSD1 [1]; [18]): 0.055 s⁻¹
- 3β-HSD kcat (human 3β-HSD2 [2]; [17]): 0.145 s⁻¹
- 3β-HSD kcat (human 3β-HSD2 [2]; [18]): 0.118 s⁻¹
- 3β-HSD kcat [3]: 0.128 s⁻¹
- Km ([3]; read-out: 3β-HSD Km): 10.7 µM
- 3β-HSD kcat [4]: 0.0933 s⁻¹
- Km ([4]; read-out: 3β-HSD Km): 7.7 µM
- 3β-HSD kcat [5]: 0.118 s⁻¹

SMILES: C[C@]1(O)CC[C@H]2[C@@H]3CC[C@@]45O[C@]4(C)C(O)=C(C#N)C[C@]5(C)[C@H]3CC[C@@]21C [epostane]
- Ki (human 3β-HSD1 [6]): 70 nM
- Ki (human 3β-HSD2 [7]): 980 nM
- Ki [8]: 1180 nM
- fold higher affinity vs MCF7 Tet-off 3β-HSD2 aromatase cells [9, 19]: 12 fold
- IC50 ([9]; read-out: IC50, proliferation, DHEA-stimulated growth): 200 nM
- IC50 [10]: 2400 nM
- effect on other enzymes in steroidogenesis [11]: no effect

SMILES: C[C@]12CC[C@@H]3c4ccc(O)cc4CC[C@H]3[C@@H]1CC[C@@H]2O [estradiol]
- EC50 [12]: 0.24 nM
- EC50 [13]: 0.32 nM

SMILES: C[C@]12CC[C@@H]3c4ccc(O)cc4CC[C@H]3[C@@H]1CCC2=O [estrone]
- EC50 [12]: 0.39 nM
- EC50 [13]: 0.34 nM

SMILES: N#Cc1ccc(C(c2ccc(C#N)cc2)n2cncn2)cc1 [letrozole]
- IC50 [14]: 0.9 nM
- inhibition of growth in the presence of doxycycline [14]: little change in rate
- stimulation of proliferation / ER-agonist activity (MCF-7 cells): Neither trilostane nor letrozole stimulated the proliferation
- inhibition of growth in the presence of doxycycline [15]: little change in rate

SMILES: C[C@]12CC[C@H]3[C@@H](CC[C@@]45O[C@@H]4C(O)=C(C#N)C[C@]35C)[C@@H]1CC[C@@H]2O [trilostane, 2α-cyano-4α ,5α-epoxy-17β-ol-androstane-3-one]
- fold lower Ki for 3β-HSD1 compared to 3β-HSD2 (human 3β-HSD1 [6]; competitive 3β-HSD1 vs noncompetitive 3β-HSD2): 16 fold
- mode of inhibition (human 3β-HSD2 [7]; Dixon analysis): noncompetitive
- Ki [16]: 2560 ± 220 nM
- mode of inhibition ([16]; Dixon analysis): noncompetitive
- IC50 [14]: 4900 nM
- inhibition of growth in the presence of doxycycline [14]: greatly attenuated
- stimulation of proliferation / ER-agonist activity (MCF-7 cells): Neither trilostane nor letrozole stimulated the proliferation
- effect on other enzymes in steroidogenesis [11]: no effect
- IC50 ([15]; Homo sapiens, MCF7, 240 h, read-out: IC50, proliferation): 300 nM
- inhibition of growth in the presence of doxycycline [15]: greatly attenuated
- fold higher affinity vs MCF7 Tet-off 3β-HSD2 aromatase cells [15, 19]: 16 fold
